In paper PMC4526345 (Biochemistry, 2015):

Legend:
[1] = target: Mycoplana ramosa APAH (Mycoplana ramosa, UniProt Q48935); assay: APAH inhibition, fluorimetric Fluor-de-Lys assay; assay type: biochemical; details: also evaluated after 30 and 60 min incubation times
[2] = target: T1, HDAC8 (Homo sapiens, UniProt Q9BY41); assay: Deacetylation of N^8-acetylspermidine by HDAC8; assay type: biochemical; details: overnight incubation with HDAC8; data not shown
T1 sequence (Q9BY41 1-377): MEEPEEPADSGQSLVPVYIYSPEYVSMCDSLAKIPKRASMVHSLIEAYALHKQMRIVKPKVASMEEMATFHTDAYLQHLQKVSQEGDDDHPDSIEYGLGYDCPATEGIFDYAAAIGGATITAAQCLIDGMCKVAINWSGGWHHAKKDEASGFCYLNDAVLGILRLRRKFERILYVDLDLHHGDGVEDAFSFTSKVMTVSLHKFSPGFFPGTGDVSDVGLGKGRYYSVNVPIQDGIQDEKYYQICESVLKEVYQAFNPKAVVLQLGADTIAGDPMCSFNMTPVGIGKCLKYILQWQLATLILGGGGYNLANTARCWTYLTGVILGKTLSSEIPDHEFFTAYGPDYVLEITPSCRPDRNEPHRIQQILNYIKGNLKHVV

[3] = tested on: HDAC8; details: read-out: IC50 HDAC8; cited from earlier work

Sequence of Mycoplana ramosa APAH (Q48935 whole entry): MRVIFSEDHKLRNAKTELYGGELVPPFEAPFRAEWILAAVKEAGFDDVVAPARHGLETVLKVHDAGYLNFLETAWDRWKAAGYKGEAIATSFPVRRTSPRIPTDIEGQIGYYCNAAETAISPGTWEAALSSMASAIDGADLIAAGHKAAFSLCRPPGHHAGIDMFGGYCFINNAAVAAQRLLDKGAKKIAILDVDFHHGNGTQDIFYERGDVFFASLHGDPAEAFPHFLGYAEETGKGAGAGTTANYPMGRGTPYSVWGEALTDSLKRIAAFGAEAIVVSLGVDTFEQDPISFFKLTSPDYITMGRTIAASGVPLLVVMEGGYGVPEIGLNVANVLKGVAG

With Cl.NCCCCCCC(=O)NO [Compound 6, 7-Amino-N-hydroxyheptanamide hydrochloride salt] as the compound, how does the “time-dependent inhibition of APAH” value [1] read?
The value was “not observed”.

Which “spermidine product formed by HDAC8” value [2] does the source give for CC(=O)NCCCCNCCCN [N^8-acetylspermidine] here?
Its value is “does not yield any measurable spermidine product”.

With largazole thiol as the compound, how does the IC50 [3] read?
The IC50 was 102 nM.
